Assays:
[1] = biological target: T1, niacinamide phosphoribosyltransferase (NAPRT, EC 2.4.2.12) (Homo sapiens, UniProt P43490); test: Niacinamide phosphoribosyltransferase (NAPRT) assay, protamine-treated cytoplasmic fraction of K-562 cells; type: biochemical; conditions: for NAM: niacinamide mononucleotide formed, controls 79.1 and 71.8; for NA: niacinamide remaining, controls 389.7 and 397.0; for NA [%] / NAM [%]: portion of total radioactivity
T1 construct: protamine-treated cytoplasmic fraction of K-562 cells as the enzyme source; endogenous in cells; host or cells: K-562 (ATCC CCL 243), freeze-thaw lysate, 23,000 x g supernatant treated with protamine sulfate
Experimental: The effect of the compounds on the enzyme niacinamide phosphoribosyltransferase (NAPRT, EC 2.4.2.12) was investigated using for example protamine-treated cytoplasmic fraction of K-562 cells as the enzyme source according to the NAPRT assay described in the experimental part below. The investigated compounds were used in concentrations of 10 μM, except for K22387 and K22133 where the concentration was 1 μM.
The assay is based on the amount of radioactive incorporation from ^14C-labelled niacinamide into niacinamide mononucleotide (NAM). NAM is subsequently separated from niacinamide (NA) by thin-layer chromatography and its quantity is determined by autoradiography.
Niacinamide Phosphoribosyltransferase (NAPRT) Assay
The human cell line K-562 (chronic myelogenous leukaemia) is obtained from the American Type Culture Collection (ATCC CCL 243), Rockville, Md., USA. The K-562 cells are cultured in RPMI (Sigma, Deisenhofen, Germany, Product No.: R6504) containing 10% foetal calf serum (PAN Systems GmbH, Aidenbach, Germany), 2.2 g/l NaHCO3 (Merck, Darmstadt, Germany), 50,000 IU/l penicillin and 50 mg/l streptomycin (Sigma).
The K-562 cells are grown in RPMI supplemented with 10% FCS at 37° C. and 100% humidity in a 5% CO2 atmosphere up to a density of 2×10^6 cells per ml. Under these conditions, the cells grow logarithmically with a generation time of 24 hours. The cells are harvested by aspiration and centrifugation (250×g, 10 min, RT). Thereafter, the cells are washed at least 3 times by repeated centrifugation (250×g, 10 min, RT) and resuspension in CMF-PBS. After counting the cell suspension in a haematocytometer, the cells are spun into a tight pellet (390×g, […], RT) and the supernatant is carefully drawn off with a Pasteur pipette. The cells are then vortexed into suspension in sufficient lysis buffer to give a final concentration of 3×10^7 cells per ml. The suspension is frozen at −80° C. for at least one day and thawed slowly at room temperature to break up the cells. The breakage is usually greater than 95%, as determined by trypan blue exclusion. Following centrifugation at 23,000×g for 90 min at 0° C., the clarified supernatant is recovered on ice and 70 μl of 1% protamine sulfate is added per ml of supernatant. After 15 min on ice, the cloudy suspension is centrifuged a further 30 min at 23,000×g and 0° C. The final supernatant is stored in small aliquots at […] This supernatant contains about 950 to 1440 μg protein per ml. 120 to 140 μg protein per sample is used in the NAPRT assay (total assay volume: 0.5 ml).
The niacinamide phosphoribosyltransferase activity is determined in a reaction solution of 0.5 ml consisting of 5 mM MgCl2, 2 mM ATP, 0.5 mM PRPP, and [^14C]niacinamide (10^−5 M to 10^−7 M) in 50 mM Tris buffer pH 8.8 (final concentrations in the assay). The reaction is started by adding 100 to 120 μl cell extract. After incubation for 1 hour at 37° C., the enzyme reaction is stopped by adding cold niacinamide (50 μl of a 100 mM niacinamide solution per 0.5 ml reaction mixture) and by heating on a heating block (2 min, 105° C.). The precipitate is removed by centrifugation (2,500×g, 10 min, 4° C.) and the supernatant is collected into a […] polypropylene vial with screw cap and stored at −20° C. until further analysis. A 10 μl aliquot is taken from the supernatant to determine the total amount of radioactivity.
The ^14C-labelled components of the reaction mixture are separated and identified using thin-layer chromatography (TLC). 5 to 7.5 μl of each sample is transferred to a cellulose TLC foil using an automated sample applicator. The cellulose foil is developed using 1 M NH4 acetate:ethanol (3:7) as solvent. The chromatogram is run with added non-radioactive standards of NAD, NADP, NAM and niacinamide, and the spots were identified by UV absorption (RF values see Table 7). For autoradiography, the chromatogram is exposed to an imaging plate BAS-IIIs in a hypercassette for at least two days. […]

Hep G2 cells = test: Nicotinamide Reversibility Assay / cell growth inhibition of Hep G2 cells (SRB, six days); type: cell-based, human; conditions: Homo sapiens, HepG2, 144 h; Hep G2; six days of compound incubation; SRB; read-out: Cell growth inhibition IC50-values [μM] Hep G2
Experimental: Nicotinamide Reversibility Assay
Hep G2 cells derived from a human liver carcinoma were plated at a density of 20,000 cells/ml in 12-well plastic dishes. Cultivation occurred in Richters IMEM-ZO nutrient medium with 5% fetal calf serum (FCS) in a tissue culture incubator with a gas mixture of 5% CO2 and 95% air at a temperature of 37° C. One day after plating, the culture medium was aspirated from the cells and replaced by fresh medium which contained the respective concentrations of the test compounds and where applicable of the nicotinamide. For the individual concentrations and the controls without test compounds, three-fold batches were done for each. Three days after the beginning of treatment, the medium was again renewed with the test compounds and where applicable the nicotinamide. After six days of compound incubation, the test was ended and the protein amount in the individual wells was determined with the sulforhodamin-B-method (according. to P. Skehan et al.: New Colorimetric Cytotoxicity Assay for Anticancer-Drug Screening. J. Natl. Cancer Inst. 82: 1107-1112, 1990). The IC50-values were taken from the dose-response curves and given as a comparative measurement for the activity of the test compounds.

HepG2 cells = test: Cell growth under high-density conditions (SRB assay), delayed cell death (DCD); type: cell-based, human; conditions: Homo sapiens, high density HepG2 cultures
[2] = minimum concentration which, despite initial growth, induced cell death below the number of initially seeded cells, Table 2
[3] = compound 10 μM, controls 16.88 and 15.32
[4] = compound 10 μM, controls 83.12 and 84.68

T1 sequence (P43490 whole entry): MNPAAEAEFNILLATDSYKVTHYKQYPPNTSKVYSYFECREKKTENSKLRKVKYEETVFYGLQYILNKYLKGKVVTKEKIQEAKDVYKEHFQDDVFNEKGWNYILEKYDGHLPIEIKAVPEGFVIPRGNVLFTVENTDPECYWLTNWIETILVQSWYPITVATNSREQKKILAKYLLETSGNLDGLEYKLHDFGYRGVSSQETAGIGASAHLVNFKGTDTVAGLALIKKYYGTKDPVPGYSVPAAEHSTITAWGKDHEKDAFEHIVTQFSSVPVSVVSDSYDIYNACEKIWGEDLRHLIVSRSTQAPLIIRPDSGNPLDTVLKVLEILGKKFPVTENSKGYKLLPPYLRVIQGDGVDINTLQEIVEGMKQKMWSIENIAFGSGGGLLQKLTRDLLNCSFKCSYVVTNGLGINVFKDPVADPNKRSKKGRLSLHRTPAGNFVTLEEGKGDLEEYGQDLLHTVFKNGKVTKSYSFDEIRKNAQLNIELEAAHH

Row | NAM ([1]; compound 1 μM) [pmol/h] | NA ([1]; compound 1 μM) [pmol/h] | NA [%] ([1]; compound 1 μM) | NAM [%] ([1]; compound 1 μM) | NAM ([1]; compound 10 μM) [pmol/h] | NA ([1]; compound 10 μM) [pmol/h] | NAM [%] [1, 3] [%] | NA [%] [1, 4] [%] | SMILES | IC50 (Hep G2 cells) [µM] | minimal effective concentration (HepG2 cells; Table 5) [µM] | minimal effective concentration (HepG2 cells; [2]) [µM]
1 | 0.0 | 468.8 | 100.00 | 0.00 | – | – | – | – | O=C(/C=C/c1cccnc1)NCCCCCCCC(c1ccccc1)c1ccccc1 [Compound K22133, N-(8,8-diphenyl-octyl)-3-pyrid-3-yl-acrylamide] | 0.02 | 0.03 | 0.03
2 | – | – | – | – | 0.0 | 468.8 | 0.00 | 100.00 | O=C(NCCCCCCNC(=O)NCc1cccnc1)NCCC(c1ccccc1)c1ccccc1 [Compound K22158, 1-(3,3-diphenylpropyl)-3-[6-(3-pyridine-3-yl-methylureido)-hexyl]-urea] | 0.1 | 1 | 1
3 | – | – | – | – | 0.0 | 468.8 | 0.00 | 100.00 | O=C(CCc1cccnc1)NCCCCC1CCN(CCCCC2CCN(C(c3ccccc3)c3ccccc3)CC2)CC1 [Compound K22316, N-(4-(1-[4-{1-benzhydryl-piperidine-4-yl)-butyl]-piperidine-4-yl}-butyl)-3-pyridine-3-yl-propanoic acid amide] | 0.9 | 1 | 1

Reference: patent publication US20020160968A1, “Inhibitors of cellular niacinamide mononucleotide formation and their use in cancer therapy” (Klinge Pharma GmbH, priority 1999, published 2002)
